How the values were obtained:
Anas platyrhynchos = details: oral, mortality
Apis mellifera = details: acute; duration: 48 hours; oral; unspecified; mortality
Canidae = details: subchronic; duration: 90 days; oral; Dog Other; histopathology: nonneoplastic
Colinus virginianus = details: for NOEL: reproduction developmental
Daphnia magna = details: chronic/long-term; duration: 21 days
Oncorhynchus mykiss = details: acute; duration: 96 hours; mortality
Oryctolagus sp. = details: reproduction developmental; body weight
Pimephales promelas = details: chronic/long-term; duration: 36 days; development
Tagia sp. = details: acute; duration: 14 days; mortality
Typhlodromus pyri [1] = details: not reported; F; reproduction
Typhlodromus pyri [2] = assay: LR50; higher = less toxic; details: not reported; mortality

COc1cnc(OC)n2nc(NS(=O)(=O)c3c(OCC(F)F)cccc3C(F)(F)F)nc12 [Penoxsulam]
LD50 (Anas platyrhynchos; acute, unspecified): > 2000 mg/kg-day | LC50 (Anas platyrhynchos; short-term, duration: 8 days, feed): > 1120 mg/kg-day | LD50 (Apis mellifera): > 100 µg/piece | NOAEL (Canidae): 18 mg/kg-day | LC50 (Colinus virginianus; acute, duration: 8 days, oral, diet, mortality): > 804 mg/kg-day | NOEL (Colinus virginianus; F): 80.1 mg/kg-day | NOEL (Colinus virginianus; M): 82.5 mg/kg-day | NOEC (Daphnia magna): 3.33 mg/L | LC50 (Oncorhynchus mykiss): > 100 mg/L | NOAEL (Oryctolagus sp.): 25 mg/kg-day | NOEC (Pimephales promelas): 10 mg/L | LD50 (Rattus norvegicus; acute, oral, mortality): > 5000 mg/kg-day | NOAEL (Rattus norvegicus; chronic, duration: 2 years, histopathology: nonneoplastic): 5 mg/kg-day | NOAEL (Rattus norvegicus; reproduction developmental, body weight): 100 mg/kg-day | NOAEL (Rattus norvegicus; reproduction developmental, reproduction): 300 mg/kg-day | LC50 (Tagia sp.): > 1000 mg/kg | LEL (Typhlodromus pyri [1]): 4 g/ha | LR50 (Typhlodromus pyri [2]): 7.46 g/ha
